In the experiment the target is Glycolate oxidase (GO) (Homo sapiens (Human), UniProt Q9UJM8). Nature of the experiment: GO biochemical assay (Amplex Red, 384-well). The procedure: Amplex® Red Hydrogen Peroxide/Peroxidase Assay Kit (Catalog no. A22188) was purchased from Thermo Fisher (Waltham, MA).
The reaction was mixed and incubated at room temperature for 20 min followed by reading the plates by EnVision plate reader (Perkin Elmer, San Jose, CA) with excitation at 570 nm and emission 585 nm. […] The % inhibition as calculated as 100%×(Well-Negative)/(Positive-Negative)

Molecules are shown by their SMILES. Bounds are passed on as bounds.

Chain of Glycolate oxidase (GO) (Q9UJM8 whole entry): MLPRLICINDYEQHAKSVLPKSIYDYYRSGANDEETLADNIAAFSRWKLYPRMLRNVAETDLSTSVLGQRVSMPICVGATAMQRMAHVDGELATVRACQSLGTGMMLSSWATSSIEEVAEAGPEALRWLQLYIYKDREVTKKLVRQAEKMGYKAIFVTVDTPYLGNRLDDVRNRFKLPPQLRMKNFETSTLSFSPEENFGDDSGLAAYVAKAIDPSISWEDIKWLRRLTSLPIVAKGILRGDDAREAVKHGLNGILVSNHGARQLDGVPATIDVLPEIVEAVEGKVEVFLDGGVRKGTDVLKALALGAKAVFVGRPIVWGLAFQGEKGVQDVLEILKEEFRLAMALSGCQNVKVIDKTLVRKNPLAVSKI

As a reminder, the IC50 is the point on the concentration scale where inhibition reaches its midpoint. Compound `COc1cc2ccc(-c3nn[nH]c3C(=O)O)cc2cn1` [Example 40, 4-(3-methoxyisoquinolin-7-yl)-1H-1,2,3-triazole-5-carboxylic acid] gave an IC50 of 1000 nM. This counts as single-digit micromolar.
`O=C(O)c1[nH]nnc1-c1ccc(-c2ccc(-c3nc4ccccc4s3)cc2)cc1` [Example 122] showed an IC50 of 10.7 nM.
For the compound `CCOC(=O)c1[nH]nnc1-c1ccc(-c2ccc(Cl)cc2)cc1` [Example 1], the 50% inhibitory concentration (IC50) came out at 1000 nM. Against the preceding compound, the IC50 is about 93-fold higher.
In turn, `Cc1cc(-c2ccc(-c3ccc(-c4nn[nH]c4C(=O)O)cc3)cc2)nn1C` [Example 117] displayed an IC50 of 19.7 nM. Against the preceding compound, the IC50 is about 51-fold lower.
Regarding `O=C(O)c1c[nH]nc1-c1cc(Cl)cc(Cl)c1` [Example 183, 3-(3,5-dichlorophenyl)-1H-pyrazole-4-carboxylic acid], the concentration for half-maximal inhibition (IC50) is above 10000 nM.
`O=C(O)c1[nH]nnc1-c1ccc(-c2cccc(-c3ccccc3)c2)cc1` [Example 99, 4-([1,131terphenyl]-4-yl)-1H-1,2,3-triazole-5-carboxylic acid] yielded a half-inhibitory concentration (IC50) of 408 nM.
`O=C(O)c1[nH]ncc1-c1ccccn1` [Example 140, 4-(pyridin-2-yl)-1H-pyrazole-5-carboxylic acid] displayed an IC50 of at least 10000 nM.
`O=C(O)c1[nH]nnc1-c1ccc2c(c1)OC(F)(F)O2` [Example 29, 4-(2,2-difluorobenzo[d][1,3]dioxol-5-yl)-1H-1,2,3-triazole-5-carboxylic acid] had a half-inhibitory concentration (IC50) of 330 nM. This counts as sub-micromolar.
In turn, `Cc1cnc(-c2ccc(-c3ccc(-c4nn[nH]c4C(=O)O)cc3)cc2)s1` [Example 109] registered an IC50 of 22.7 nM.
As for `Cn1nnc(C(=O)O)c1-c1ccc(F)c(Cl)c1` [Example 17, 5-(3-chloro-4-fluorophenyl)-1-methyl-1H-1,2,3-triazole-4-carboxylic acid], the IC50 was at least 10000 nM.
Turning to `O=C(O)c1[nH]nnc1C#Cc1ccc(Cl)cc1` [Example 160, 4-((4-chlorophenyl)ethynyl)-1H-1,2,3-triazole-5-carboxylic acid], the half-maximal inhibitory concentration (IC50) came out at 226 nM.
Turning to `N#Cc1cccc(-c2nn[nH]c2C(=O)O)c1` [Example 12], the IC50 was 130 nM.
`O=C(O)c1[nH]nnc1-c1ccc(-c2ccc(-c3cn[nH]c3)cc2)cc1` [Example 124] had an IC50 of 16.1 nM.
Compound `O=C(O)c1[nH]nnc1-c1ccc(-c2ccc(N3CCOCC3)cc2)cc1` [Example 84] showed an IC50 of 1000 nM.
`CC(C)(C)c1ccc(-c2ccc(-c3nn[nH]c3C(=O)O)cc2)cc1` [Example 54]: it took 4300 nM to reach half-maximal inhibition (IC50).
In the case of `O=C(O)c1[nH]nnc1-c1ccc(-c2cccc(S(=O)(=O)N3CCOCC3)c2)cc1` [Example 75], the IC50 was 18.6 nM.
Regarding `CC(=O)N1CCC(c2ccc(-c3nn[nH]c3C(=O)O)cc2)CC1` [Example 163, 4-(4-(1-acetylpiperidin-4-yl)phenyl)-1H-1,2,3-triazole-5-carboxylic acid], half-maximal inhibition (IC50) required 1000 nM. This IC50 is about 54-fold higher than that of the compound before.
Turning to `O=C(O)c1[nH]nnc1-c1ccc2c(c1)oc1ccccc12` [Example 87, 4-(dibenzo[b,d]furan-3-yl)-1H-1,2,3-triazole-5-carboxylic acid], half-maximal inhibition (IC50) required 23.8 nM.
With `O=C(O)c1[nH]nnc1-c1cccc(Cl)c1F` [Example 22, 4-(3-chloro-2-fluorophenyl)-1H-1,2,3-triazole-5-carboxylic acid], the half-inhibitory concentration (IC50) came to 159 nM.
Compound `O=C(O)c1[nH]nnc1-c1ccc(-c2ccc(S(=O)(=O)N3CCCCC3)cc2)cc1` [Example 79] showed an IC50 of 244 nM.
As for `CC(=O)N1CC=C(c2ccc(-c3nn[nH]c3C(=O)O)cc2)CC1` [Example 162, 4-(4-(1-acetyl-1,2,3,6-tetrahydropyridin-4-yl)phenyl)-1H-1,2,3-triazole-5-carboxylic acid], it took 88.2 nM to reach half-maximal inhibition (IC50).
`Cc1cc(-c2ccc(-c3nn[nH]c3C(=O)O)cc2)ccc1Cl` [Example 91] returned an IC50 of 64.5 nM. The IC50 values of the last two compounds are within 1.5-fold of each other.
The figure for `O=C(O)c1[nH]nnc1-c1cscn1` [Example 141, 4-(thiazol-4-yl)-1H-1,2,3-triazole-5-carboxylic acid] is at least 10000 nM.
